Patent US10669302B2, “Crystal form of fludarabine phosphate, preparation method therefor, and application thereof” (Zhejiang Hisun Pharmaceutical Co., Ltd., priority 2015, dated 2020)

Legend:
[1] = Tests of dissolution rates (turbidimeter, purified water); type: physicochemical; parameters: Reading: unit not given here; conditions: for Solution state / Reading / Turbidity: 50 mg in 10 ml purified water; for Clarity achieved in purified water: in a short period of time, summary of Table 3; for Reading: turbidimeter
Method: The turbidimeter and the test conditions involved in the present invention are: turbidimeter model: MERCK TURBIQUANT 1500IR; operation method: the purified water was used as a zero point control, 50 mg of crystal form I of fludarabine phosphate and 50 mg of crystal form II of fludarabine phosphate were dissolved in 10 ml of purified water respectively as test samples, the specific test data can be seen in Table 3.
Tests of Dissolution Rates for Crystal Form I and Crystal Form II of Fludarabine Phosphate

[2] = Stability tests (sealed PE and aluminum foil bags, liquid chromatography); type: physicochemical; conditions: for Stability in words: under room temperature and refrigerated conditions, summary of Table 4
Method: The liquid chromatography test conditions involved in the present invention are: chromatographic column: SHIMADZU, VP-ODS, 4.6 mm×15 cm 5 μm or equivalent;
mobile phase A: 10 mM monopotassium phosphate (0.01 mol/l):methanol=47:3; detection wavelength: 260 nm; flow rate: 1.0 ml/min; injection volume: 10 μl.
Packaging condition: crystal form I and crystal form II of fludarabine phosphate were first sealed and packaged with PE bags respectively, and then sealed and packaged with aluminum foil bags outside, the samples were reserved at room temperature and refrigerated conditions, the samples were tested with the liquid chromatography. The test condition of the liquid chromatography is described in SUMMARY OF THE INVENTION section of this application.

[3] = before the samples were reserved
[4] = refrigerated (2-10° C.), humidity 75%, reserved for five months
[5] = refrigerated (2-10° C.), humidity 75%, reserved for four months
[6] = refrigerated (2-10° C.), humidity 75%, reserved for one month
[7] = refrigerated (2-10° C.), humidity 75%, reserved for six months
[8] = refrigerated (2-10° C.), humidity 75%, reserved for three months
[9] = refrigerated (2-10° C.), humidity 75%, reserved for two months
[10] = room temperature (10-30° C.), humidity 75%, reserved for five months
[11] = room temperature (10-30° C.), humidity 75%, reserved for four months
[12] = room temperature (10-30° C.), humidity 75%, reserved for one month
[13] = room temperature (10-30° C.), humidity 75%, reserved for six months
[14] = room temperature (10-30° C.), humidity 75%, reserved for three months
[15] = room temperature (10-30° C.), humidity 75%, reserved for two months
[16] = 10 s, listed as Cyrstal form II
[17] = 40 s, listed as Cyrstal form II

Solution state ([1]; 70 s)	Solution state ([1]; 80 s)	Solution state ([1]; 90 s)	Solution state ([1]; 100 s)	Clarity achieved in purified water [1]	Liquid chromatography result of stability sample [2, 3] [%]	Liquid chromatography result of stability sample [2, 4] [%]	Liquid chromatography result of stability sample [2, 5] [%]	Liquid chromatography result of stability sample [2, 6] [%]	Liquid chromatography result of stability sample [2, 7] [%]	Liquid chromatography result of stability sample [2, 8] [%]	Liquid chromatography result of stability sample [2, 9] [%]	Liquid chromatography result of stability sample [2, 10] [%]	Liquid chromatography result of stability sample [2, 11] [%]	Liquid chromatography result of stability sample [2, 12] [%]	Liquid chromatography result of stability sample [2, 13] [%]	Liquid chromatography result of stability sample [2, 14] [%]	Liquid chromatography result of stability sample [2, 15] [%]	Stability in words [2]	SMILES	also measured
Clear	Clear	Clear	Clear	good clarity	99.685	99.685	99.685	99.685	99.685	99.685	99.685	99.684	99.684	99.685	99.684	99.685	99.685	good stabilities	Nc1nc(F)nc2c1ncn2[C@@H]1O[C@H](COP(=O)(O)O)[C@@H](O)[C@@H]1O [Crystal form I, 9-β-D-arabinofuranosyl-2-fluoroadenine-5′-phosphate]	Solution state ([1]; 5 s): Clear; Solution state ([1]; 10 s): Clear; Solution state ([1]; 20 s): Clear; Solution state ([1]; 30 s): Clear; Solution state ([1]; 40 s): Clear; Solution state ([1]; 50 s): Clear; Solution state ([1]; 60 s): Clear; Reading ([1]; 5 s): 2.2; Reading ([1]; 10 s): 1.75; Reading ([1]; 20 s): 1.75; Reading ([1]; 30 s): 1.75; Reading ([1]; 40 s): 1.75; Reading ([1]; 50 s): 1.75; Reading ([1]; 60 s): 1.75; Reading ([1]; 70 s): 1.75; Reading ([1]; 80 s): 1.75; Reading ([1]; 90 s): 1.75; Reading ([1]; 100 s): 1.75
Clear	Clear	Clear	Clear	good clarity	99.677	99.677	99.677	99.677	99.677	99.677	99.677	99.663	99.663	99.673	99.663	99.667	99.668	good stabilities	Nc1nc(F)nc2c1ncn2[C@@H]1O[C@H](COP(=O)(O)O)[C@@H](O)[C@@H]1O [Crystal form II, 9-β-D-arabinofuranosyl-2-fluoroadenine-5′-phosphate]	Solution state ([1]; 5 s, listed as Cyrstal form II): Turbid; Turbidity ([1]; 5 s, listed as Cyrstal form II): Sample >1; Solution state [1, 16]: Turbid; Turbidity [1, 16]: Sample >1; Solution state ([1]; 20 s, listed as Cyrstal form II): Turbid; Solution state ([1]; 30 s, listed as Cyrstal form II): Turbid; Solution state [1, 17]: Turbid; Reading [1, 17]: 6.41; Reading ([1]; 50 s, listed as Cyrstal form II): 4.54; Reading ([1]; 60 s, listed as Cyrstal form II): 3.32; Reading ([1]; 70 s, listed as Cyrstal form II): 2.56; Reading ([1]; 80 s, listed as Cyrstal form II): 2.41; Reading ([1]; 90 s, listed as Cyrstal form II): 2.29; Reading ([1]; 100 s, listed as Cyrstal form II): 2.29
